Measured values from patent US4440757A, “Pharmaceutical composition comprising derivative of aminobenzoic acid for regulating prostaglandin” (priority 1978, dated 1984).

Assays:
[1] = system: lymphocytes from the spleen of a BALB/C mouse; experiment: PGs metabolism of 3H-arachidonic acid taken into lymphocytes; type: cell-based; set-up: key: -: no change was observed; ±: change was slightly observed; +: change was clearly observed; settings: 500 μg/ml, 37° C., 60 min
Procedure: After adjusting the lymphocytes taken from the spleen of a BALB/C mouse to a concentration of 1×10^7 cells/ml, 2 μCi of ^3 H-arachidonic acid was added and the mixture was incubated at a temperature of 37° C. for 90 min. The incubated lymphocytes were washed three times with the culture medium. After again ajusting the cells to a concentration of 1×10^7 cells per ml, the culture were poured into four siliconized test tubes in an amount of 2 ml/tube. Two test tubes were used as control, and into each of the remaining two test tubes, 500 μg of the present substance, in this Example, Specimen No. 7 was added, and then the four test tubes were incubated at 37° C. for 60 min. After incubation, the test tubes were centrifugated at 0° C. for 5 min. at 1,200 rpm.
The thus obtained pellets of cells were taken into a vial containing 2 ml of the culture medium and after adding 5 ml of petroleum ether, the vial was shaken and the ether layer was removed, the remaining aqueous layer being adjusted to pH of 3.5 by aqueous 0.5 N hydrochloric acid solution.
The aqueous acidic solution was extracted three times with each 5 ml of ether, and the ether extract was dried to solid. The solid material was subjected to esterification by a solution of diazomethane. The esterified reaction mixture was subjected to thin-layer chromatography and was developed with a 90:50:20:100 (by volume) mixed solvent of ethyl acetate:iso-octane:acetic acid:water. The identification of the thus appeared spots on the chromatogram was carried out by using the following authentic specimens of PGD2, PGE2, PGF2-α and 6-keto-PGF1-α. The silicagel layer of the separated chlomatogram was scraped out and dissolved into a liquid for the liquid scintillator to be counted. From the change of the counts the change of PGS was determined.

[2] = system: washed platelets, malondialdehyde; experiment: Level of malondialdehyde (MDA) of platelets; type: cell-based, human; settings: Ca ionophore A-23187, 5 min, 37° C.
Procedure: PRP collected from human blood was centrifugated and washed to be "washed platelets". After adding one of the present substances (Specimens Nos. 4, 7 and 8) to the washed platelets, Caionophore A-23187 was further added to them and the mixture was incubated for 5 minutes at 37° C. Then, thiobarbituric acid was added to the incubated mixture, as a colour developer, and the mixture was extracted with a solvent mixture of methanol and butanol. The absorption at 535 nm was colorimetrically read to determine the amount of malondialdehyde (MDA). […] From this fact also, the participation of the present substance in the metabolism of PGs is presumable.

[3] = system: sarcoma induced by methylcholanthrene; 6-keto PGF1α; experiment: Level of 6-keto PGF1α in plasma of sarcoma-bearing rats; type: in vivo, spontaneous hypertensive rats (SHR); settings: 500 mg/kg/day i.p., 6 days
Procedure: Cells of sarcoma induced by methylcholanthrene were transplanted on the back of a group of spontaneous hypertensive rats (SHR) subcutaneously at a rate of 1×10^6 cells/animal, and while feeding the rats, the present substance, Specimen No. 7, was daily administered intraperitoneally for consecutive 6 days from after 24 hours of the transplantation at a rate of 500 mg/kg/day. After 2 weeks of the ending of administration, whole blood was collected to obtain a fraction of plasma. The ether-extract of the plasma was separated by thin layer chromatography and after converting the extract into a methyloximesilyl derivative, the variation of the level 6-keto PGF1α in the extract was examined by gas-chromatography and masspectroscopy.

[4] = system: male SHR rats; experiment: Effect of aspirin on the hypotensive action; type: in vivo, rat (SHR); settings: 100 mg/kg p.o., after 6 hours; for Alteration of blood pressure, Case (b): with aspirin 200 mg/kg before and after; for Alteration of blood pressure, Case (a): without aspirin
Procedure: It is known that PGs are produced from arachidonic acid and the conversion of arachidonic acid into PGG2 is mediated by cyclooxygenase. Also it is known that aspirin inactivates cyclooxygenase, and that the […] of PGs is completely stopped by the administration of aspirin to a mammal.
Accordingly, the following experiment was carried out: To groups of male SHR rats of 30 to 40 weeks after birth, (a) one of the present substance was forcibly administered orally at 100 mg/kg as a solution in distilled water or an aqueous suspension in 2% solution of carboxymethylcellulose or (b) aspirin was forcibly administered orally, before and after one hour of the administration of the present substance, at 200 mg/kg. The blood pressure of the thus treated rats was measured with the time passage.

[5] = system: male SHR rats; experiment: Blood pressure and 6-keto PGF1-α in blood of SHR after 14 days; type: in vivo, rat (SHR); settings: 100 mg/kg/day p.o.; for Content of 6-keto-PGF1-α in blood: control 3; for Blood pressure: control 195
Procedure: After forcibly administering the present substance (Specimens Nos. 4, 7 and 8) every day for successive 14 days at a rate of 100 mg/kg/day by oral route to groups of male SHR rats, their whole blood was collected on 15th day to obtain the plasma fraction. The ether-extract of the plasma fraction was separated and isolated by thin-layer chromatography and after converting the isolated fraction into methyloximesilyl derivatives, the alteration of 6-keto PGF1-α was examined by gas-chromatography and mass-spectroscopy. In the group to which the present substance was administered, the content of 6-keto PGF1-α was larger together with the reduced blood pressure than in control. This parallelism of the effects leads to the presumption that the effect of the present invention is mediated by prostaglandin.

[6] = system: male Sprague-Dowley rats; experiment: Foot-oedema induced by carrageenin and PGE1; type: in vivo; settings: 1000 mg/kg p.o.; with carrageenin + PGE1; 60 min after carrageenin
Procedure: The three groups of male Sprague-Dowley rats of total six groups, the respective present substances, Specimens Nos. 4, 7 and 8 were administered forcibly by oral route at a rate of 1000 mg/kg, the other three groups of the same kind of rats being administered nothing at this time.
After 60 min of the administration, 0.1 ml of an aqueous solution of carrageenin (1 mg) and PGE1 (0.1 μg) was injected onto the hind paw of the four groups of the rats including the three groups administered with the present substance. To one group of remaining two groups not administered with the present substance, 0.1 ml of an aqueous solution containing only carrageenin at 1% was injected, and to the other one group not administered with the present substance, an aqueous solution containing only PGE1 was injected.
The volume of the thus swollen foot of the groups of the thus treated rats was measured by the water-displacement method, and the results are shown in Table 17 by the increment of the volume of foot as compared to the volume of foot before the treatment as percentage.

| Compound | Change of 6-keto-PGF1-α [1] | Change of PGD2 [1] | Change of PGE2 [1] | Change of PGF2-α [1] | production of malondialdehyde (MDA) (FIG. 8) [2] | level of 6-keto PGF1 in the blood of cancer-bearing rat (FIG. 14) [3] | Alteration of blood pressure, Case (b) [4] | Alteration of blood pressure, Case (a) [4] | Content of 6-keto-PGF1-α in blood [5] | Blood pressure [5] | Percentage increment of volume of foot [6] |
| --- | --- | --- | --- | --- | --- | --- | --- | --- | --- | --- | --- |
| O=C(O)c1ccc(NC2OC[C@@H](O)[C@H](O)[C@H]2O)cc1 (stereo partly drawn) [Specimen No. 7, Sodium p-aminobenzoate-N--D-xyloside] | ± | + | + | ± | suppressed the production of MDA | almost same as in normal rat | 0 mmHg | -20 mmHg | 6.5 ng/mL | 160 mmHg | 28.2% |
| C[C@@H]1OC(Nc2ccc(C(=O)O)cc2)[C@H](O)[C@H](O)[C@H]1O (stereo partly drawn) [Specimen No. 8, Sodium p-aminobenzoate-N--L-rhamnoside] | – | – | – | – | suppressed the production of MDA | – | 0 mmHg | -15 mmHg | 7 ng/mL | 150 mmHg | 29.7% |
| O=C(O)c1ccc(NC2O[C@H](CO)[C@@H](O)[C@H](O)[C@@H]2O)cc1 (stereo partly drawn) [Specimen No. 4, Sodium p-aminobenzoate-N--D-mannoside] | – | – | – | – | suppressed the production of MDA | – | -5 mmHg | -20 mmHg | 7 ng/mL | 155 mmHg | 32.5% |
